Data on two compounds can be found in publication PMC10791743, “Selective CK1α degraders exert antiproliferative activity against a broad range of human cancer cell lines” (Nature Communications, 2024).

Where “and” joins values, the source holds several entries; their conditions need not be identical. Equal entries are not always repeated.

The nature of this data set: Plasma stability assay, human. It counts as in vitro ADME. The conditions noted are these: for Calculated Concentration: 0h standards set to Actual Concentration 100, IS warfarin, replicates. As to the method:
page 32: Aldrich, Saint Louis, MO) were diluted into 0.1 M potassium phosphate buffer (PBS, pH 7.4, KH2PO4, Cat. No: P284-500; K2HPO4, Cat. No: BP363-500, Fisher Scientific, Fair Lawn, NJ) and mixed well. 40 μL of this solution was transferred into the above compounds plates. For the time 0 plate, 3 fold (v:v) cold acetonitrile with warfarin (400 ng/mL) as the internal standard was added to […] and B in PBS, pH 7.4) and no incubation. For the other five time points’ plates, 10 μL NADPH regenerating agent mixer was added to each well to initiate the reaction, the plate was sealed and incubated at 37° C on an orbital shaker (100 rpm) for the required time, followed by quenching of the reaction by adding 3-fold volume of cold acetonitrile with internal standard to each well. The final concentration of each component applied in this reaction was liver microsome protein at 0.5 […] After quenching, all plates were securely sealed and thoroughly mixed at 600 rpm for 10 minutes. Subsequently, centrifugation was performed at 4000 rpm for 20 minutes. The resulting supernatants […] analysis using UPLC–MS/MS. The assessment of metabolic stability involved determining the half- life through a least-squares fit of multiple time points, employing first-order kinetics. Plasma stability assay5: The degradation of human or mouse plasma was assessed by monitoring the gradual reduction of the parent compound over specified time intervals (0, 3, 24, and 48 hours). Human and mouse plasma samples were sourced from GeneTex (Irvine, CA). Test compound stock solutions, prepared at 10 mM in DMSO, were dispensed into triplicate wells of a 96-well microplate using the Labcyte Echo 650 dispenser. For plates, excluding the time 0-hour plate, plasma was […] The plate was sealed, incubated at 37°C on an orbital shaker (100 rpm) for the required duration, and then quenched with cold acetonitrile, incorporating warfarin as the internal standard. In the case of the time 0-hour plate, cold acetonitrile with the internal standard was added to each well before introducing plasma, eliminating page 33: the need for further incubation. Following quenching, all plates were thoroughly mixed at 600 rpm for 10 minutes and centrifuged at 4000 rpm for 20 minutes. Supernatants were transferred to […] MS/MS analysis. Plasma stability was evaluated by determining the half-life through a least-squares fit of multiple time points based on first-order kinetics. Plasma protein binding assay: Test compound stock solutions were prepared at a concentration of 10 mM in DMSO. A Single-Use RED (Rapid Equilibrium Dialysis) device was acquired from Thermo Scientific (Cat. No: 99006, Rockford, IL). The sample preparation for plasma protein binding followed a modified version of Waters' method6. After thawing, plasma was centrifuged at 1000 rpm for 10 minutes to eliminate any particulates. Each compound was then prepared at a concentration of 10 µM in either human or mouse plasma. In the plasma protein binding assessment, 300 µL of spiked plasma solutions were introduced into the sample chamber (indicated by the red ring), while 550 µL of DPBS was added to the adjacent chamber. The plate was sealed and incubated at 37°C on an orbital shaker (100 rpm) for 4 hours. Post -incubation, 50 µL aliquots were withdrawn from each side of the insert and dispensed into a 96 -well storage plate. To create analytically identical sample matrices (matrix matching), an equivalent volume of blank plasma or DPBS was added to the necessary wells, followed by quenching w ith 3-fold (v:v) cold acetonitrile containing warfarin as the internal standard. Subsequently, the sealed plates were well -mixed at 600 rpm for 10 minutes and then centrifuged at 4000 rpm for 20 minutes. Supernatants were transferred to analytical […] Test compound concentrations were quantified in both the buffer and plasma chambers by determining peak areas relative to the internal standard. […]

The mark [1] stands for this setting: human plasma, regression of log concentration over time points 0, 3, 24, 48 h.

On to `O=C1CCC(N2Cc3cc(Nc4noc5ccccc45)ccc3C2=O)C(=O)N1` (stereo not drawn) [SJ3149], for which the Plasma stability (human) amounted to 8.5 h.

As for `O=C1CCC(N2Cc3cc(Nc4noc5ccccc45)ccc3C2=O)C(=O)N1` (stereo not drawn) [SJ001043149-1], the “Calculated Concentration” value reads like this: (human plasma, time point 3h) 67.501 and 81.153 and 72.775; (human plasma, time point 24h) 13.370 and 15.407 and 13.318; (human plasma, time point 48h) 1.845 and 2.121 and 1.968. Under setting [1], this compound had a Ke of 0.08114. Further, the “t(1/2)” value under setting [1] was 8.5413.
